# Experimental data taken from US20130045983A1, “HSP90 INHIBITORS FOR THERAPEUTIC TREATMENT” (Novartis AG, priority 2008, published 2013).
# pIC50: −log10 of the molar value.
# System: CXF 243
# Assay: Clonogenic assay, CXF 243
# Assay type: cell-based
# Details: Homo sapiens, Colon, Adenocarcinoma, soft agar, read-out: IC50 (colony formation)
# Method: The anticancer activity of (R)-2-amino-7-[2-(6-methoxy-pyridin-2-yl)-phenyl]-4-methyl-7,8-dihydro-6H-pyrido[4,3-d]pyrimidin-5-one is evaluated in 30 human tumor xenografts in vitro using a clonogenic assay. In this assay, human cells derived from cancer patients are evaluated for the capacity of (R)-2-amino-7-[2-(6-methoxy-pyridin-2-yl)-phenyl]-4-methyl-7,8-dihydro-6H-pyrido[4,3-d]pyrimidin-5-one to inhibit the formation of 3 dimensional colonies. […] The tumor xenografts which have never been cultured in cell culture plastic dishes are isolated from nude mice. Tumor cell suspensions are prepared and incubated in 24 well plates containing layers of soft agar. Under these conditions a special subpopulation of cells selectively grows to colonies. (R)-2-amino-7-[2-(6-methoxy-pyridin-2-yl)-phenyl]-4-methyl-7,8-dihydro-6H-pyrido[4,3-d]pyrimidin-5one is tested in 6 concentrations up to 1000 nM. The tumor test panel comprises 1 to 10 models of 12 different human tumor types, which were bladder cancer, colon, gastric, non small cell lung (adeno, squamous cell, and large cell), small cell lung, mammary, ovary, and prostate cancer, as well as leukemia, lymphoma, melanoma, and sarcoma. Antitumor effects are recorded as inhibition of colony formation in relation to untreated controls. […]
compound,measurement,value
"COc1cccc(-c2ccccc2[C@H]2Cc3nc(N)nc(C)c3C(=O)N2)n1 [(R)-2-amino-7-[2-(6-methoxy-pyridin-2-yl)-phenyl]-4-methyl-7,8-dihydro-6H-pyrido[4,3-d]pyrimidin-5-one]",pIC50,7.36
